Measured values as given in publication PMC7581728, “Sapitinib Reverses Anticancer Drug Resistance in Colon Cancer Cells Overexpressing the ABCB1 Transporter” (Frontiers in Oncology, 2020).

Target: T1, ABCB1 (Homo sapiens, UniProt P08183)
T1 construct: ABCB1 transporter in membrane vesicles of High Five insect cells
Assay: vanadate-sensitive ATPase stimulation in ABCB1 membrane vesicles ([…] maximum); also raised [3H]-paclitaxel accumulation in SW620/Ad300 cells
Assay type: biochemical

T1 sequence (P08183 whole entry): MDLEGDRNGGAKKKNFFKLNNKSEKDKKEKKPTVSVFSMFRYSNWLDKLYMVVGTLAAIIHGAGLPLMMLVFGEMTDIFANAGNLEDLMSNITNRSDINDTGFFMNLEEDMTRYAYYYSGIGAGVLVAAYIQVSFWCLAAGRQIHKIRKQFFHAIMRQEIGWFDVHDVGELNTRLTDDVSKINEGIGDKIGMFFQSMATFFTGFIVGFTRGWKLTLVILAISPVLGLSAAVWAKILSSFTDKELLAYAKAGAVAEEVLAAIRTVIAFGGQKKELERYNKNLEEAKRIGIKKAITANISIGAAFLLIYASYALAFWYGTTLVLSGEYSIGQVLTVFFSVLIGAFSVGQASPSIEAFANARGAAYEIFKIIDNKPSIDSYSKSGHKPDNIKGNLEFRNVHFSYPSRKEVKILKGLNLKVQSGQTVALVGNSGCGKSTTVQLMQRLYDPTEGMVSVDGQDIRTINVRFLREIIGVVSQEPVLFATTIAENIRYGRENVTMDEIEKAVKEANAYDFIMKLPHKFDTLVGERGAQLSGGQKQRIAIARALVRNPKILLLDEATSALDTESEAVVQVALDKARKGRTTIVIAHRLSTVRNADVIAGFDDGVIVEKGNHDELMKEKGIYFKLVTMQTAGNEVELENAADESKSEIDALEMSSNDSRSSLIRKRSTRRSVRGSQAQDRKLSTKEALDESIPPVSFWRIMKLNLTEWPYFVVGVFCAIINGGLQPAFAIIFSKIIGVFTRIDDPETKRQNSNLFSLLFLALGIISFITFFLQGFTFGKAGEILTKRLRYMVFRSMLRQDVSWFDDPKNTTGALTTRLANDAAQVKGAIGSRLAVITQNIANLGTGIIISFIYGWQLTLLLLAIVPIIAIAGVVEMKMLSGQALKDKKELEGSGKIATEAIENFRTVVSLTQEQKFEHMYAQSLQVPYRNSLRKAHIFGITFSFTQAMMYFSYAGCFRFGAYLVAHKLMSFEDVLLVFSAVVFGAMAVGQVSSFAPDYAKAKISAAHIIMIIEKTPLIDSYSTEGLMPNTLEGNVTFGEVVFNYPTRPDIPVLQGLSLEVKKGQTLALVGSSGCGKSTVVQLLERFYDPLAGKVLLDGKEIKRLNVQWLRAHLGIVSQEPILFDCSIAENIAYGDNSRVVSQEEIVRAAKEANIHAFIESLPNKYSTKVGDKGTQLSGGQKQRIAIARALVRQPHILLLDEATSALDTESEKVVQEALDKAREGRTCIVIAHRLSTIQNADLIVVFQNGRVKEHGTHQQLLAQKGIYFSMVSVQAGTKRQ

- EC50: 5.3 µM
Compound: CNC(=O)CN1CCC(Oc2cc3c(Nc4cccc(Cl)c4F)ncnc3cc2OC)CC1 [sapitinib]
